As usually defined, the Ki is a dissociation constant, usually derived from enzyme kinetics or from competition with a known ligand. A higher Ki goes with a looser hold on the target.

Test [1] has as its target Carbonic anhydrase 2 (Homo sapiens, UniProt P00918). Put plainly: Inhibition of human carbonic anhydrase-2.
The target of test [2] is Carbonic anhydrase 12 (Homo sapiens, UniProt O43570). Nature of the test: Inhibition of human carbonic anhydrase-12.
In test [3] the target is Carbonic anhydrase 1 (Homo sapiens, UniProt P00915). Put plainly: Inhibition of human carbonic anhydrase-1.
Carbonic anhydrase 1, sequence (P00915 whole entry): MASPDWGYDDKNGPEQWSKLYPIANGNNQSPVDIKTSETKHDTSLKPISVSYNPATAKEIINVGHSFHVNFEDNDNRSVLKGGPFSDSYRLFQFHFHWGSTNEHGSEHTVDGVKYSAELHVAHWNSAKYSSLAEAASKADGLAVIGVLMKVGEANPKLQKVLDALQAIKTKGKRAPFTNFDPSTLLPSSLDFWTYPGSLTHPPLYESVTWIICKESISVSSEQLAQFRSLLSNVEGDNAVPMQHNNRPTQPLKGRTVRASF

Carbonic anhydrase 12, sequence (O43570 whole entry): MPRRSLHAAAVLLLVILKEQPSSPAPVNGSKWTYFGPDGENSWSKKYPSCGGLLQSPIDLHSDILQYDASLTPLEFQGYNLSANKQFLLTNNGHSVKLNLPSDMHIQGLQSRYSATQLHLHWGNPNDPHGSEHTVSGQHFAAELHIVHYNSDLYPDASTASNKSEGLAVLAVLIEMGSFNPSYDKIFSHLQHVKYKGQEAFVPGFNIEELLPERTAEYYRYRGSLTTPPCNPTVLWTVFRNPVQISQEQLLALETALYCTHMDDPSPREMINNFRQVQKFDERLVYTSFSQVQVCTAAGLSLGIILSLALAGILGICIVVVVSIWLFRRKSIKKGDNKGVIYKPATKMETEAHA

`COc1ccc(C)cc1NC(=O)Nc1ccc(NS(N)(=O)=O)cc1`: the results for the Ki in test [1] and in test [2] were 430 nM and 27 nM, respectively.

Take `NS(=O)(=O)Oc1ccc(NC(=O)NC23CC4CC(CC(C4)C2)C3)cc1`: the Ki came out at 430 nM in test [1] and 43 nM in test [2].

On to `NS(=O)(=O)Nc1ccc(NC(=O)Nc2ccc(Cl)cc2)cc1`, for which the Ki amounted to 342 nM in test [1], 3420 nM in test [3] and 27 nM in test [2].

For the compound `CC(C)c1ccccc1NC(=O)Nc1ccc(NS(N)(=O)=O)cc1`, the Ki in test [1] was 682 nM.

For `NS(=O)(=O)Nc1ccc(NC(=O)NCc2ccccc2)cc1`, the results for the Ki in test [1], in test [3] and in test [2] were 136 nM, 2710 nM and 9 nM, respectively.

With `NS(=O)(=O)Nc1ccc(NC(=O)NCc2ccco2)cc1`, the Ki in test [3] stood at 6660 nM; in test [2] it was 11 nM.

In the case of `NS(=O)(=O)Nc1ccc(NC(=O)Nc2cccc([N+](=O)[O-])c2)cc1`, the Ki was 430 nM in test [1], 2150 nM in test [3] and 9 nM in test [2].

In the case of `CC(NC(=O)Nc1ccc(NS(N)(=O)=O)cc1)c1cccc2ccccc12` (stereo not given), the Ki turned out to be 430 nM in test [1] and 27 nM in test [2].

Turning to `NS(=O)(=O)Nc1ccc(NC(=O)Nc2ccccc2-c2ccccc2)cc1`, the results for the Ki in test [1] and in test [2] were 858 nM and 216 nM, respectively.

As to `Cc1cc(Cl)ccc1NC(=O)Nc1ccc(NS(N)(=O)=O)cc1`, the inhibitory constant (Ki) in test [3] is 4300 nM; in test [2], 17 nM.

In test [1], `COc1ccc(OC)c(NC(=O)Nc2ccc(NS(N)(=O)=O)cc2)c1` came in with a Ki of 430 nM.

In turn, `Cc1cc(C)cc(NC(=O)Nc2ccc(NS(N)(=O)=O)cc2)c1` registered a Ki in test [1] of 682 nM.

On to `CCCCOc1ccc(NC(=O)Nc2ccc(NS(N)(=O)=O)cc2)cc1`, for which the figures for the inhibition constant (Ki) in test [1] and in test [3] were 342 nM and 1710 nM, respectively.

`NS(=O)(=O)Nc1ccc(NC(=O)NC2CCCCC2)cc1`: the Ki in test [1] was 342 nM; in test [3] it was 4300 nM; in test [2], 108 nM.

Consider `COc1ccc(NC(=O)Nc2ccc(NS(N)(=O)=O)cc2)c(C)c1`, for which the Ki is 342 nM in test [1], 3420 nM in test [3] and 34 nM in test [2].

Take `NS(=O)(=O)Nc1ccc(NC(=O)NCCc2ccccc2)cc1`: the Ki is 171 nM in test [1], 2710 nM in test [3] and 9 nM in test [2].

For the origin of these results see BindingDB's records for doi:10.1016/j.bmc.2012.11.004 (Romanian Academy, 2013).
